# Patent publication US11873313B1, “Development of novel tetra nuclear distorted square anti-prism Dy (III) imine complex for pharmaceutical and industrial applications” (KING FAISAL UNIVERSITY, priority 2023, dated 2024)
# Key:
# [1] = tested on: breast cancer cell line; test: Anti-oxidant activity; conditions: against the breast cancer cell line (so in the source)
# [2] = tested on: E-coli bacteria; test: Anti-microbial activity (antibacterial, inhibition zone and MIC); assay type: cell-based
# [3] = tested on: colon cancer cell line; test: Anti-cancer activity against colon cancer cell line; assay type: cell-based; conditions: read-out: IC50 (anticancer activity)
smiles,measurement,setting,value
"O=C1O[C@H]([C@@H](O)CO)C(O)=C1O [1-ascorbic acid, reference compound]",IC50 (Antioxidant activity),[1],55.2 µg/mL
"CC1COc2c(N3CCN(C)CC3)c(F)cc3c(=O)c(C(=O)O)cn1c23 (stereo not shown) [Ofloxacin, reference compound]",inhibition zone,[2],30 mm
same,MIC,[2]; Escherichia coli,2.25 µg/mL
"CC[C@]1(O)C[C@@H]2CN(CCc3c([nH]c4ccccc34)[C@@](C(=O)OC)(c3cc4c(cc3OC)N(C)[C@H]3[C@@](O)(C(=O)OC)[C@H](OC(C)=O)[C@]5(CC)C=CCN6CC[C@]43[C@@H]65)C2)C1 [vinblastine, reference compound]",IC50,[3],4.7 µg/mL
